Values quoted from earlier work in patent publication US20210251559A1, “METHODS FOR DIAGNOSING, MONITORING AND TREATING NEUROLOGICAL DISEASES AND DISORDERS” (CuraSen Therapeutics, Inc., priority 2018, published 2021).

System: Ts65Dn mice
Details: increasing brain NE levels

## N[C@H](C(=O)O)[C@H](O)c1ccc(O)c(O)c1 [L-DOPS, L-threo-3,4-dihydroxyphenylserine]
  contextual learning: restored contextual learning
